According to patent publication US20230278972A1, “SUBSTITUTED HALOALKYL SULFONANILIDE HERBICIDES” (FMC Corporation, priority 2020, published 2023):

What was measured:
Assay type in all cases: in vivo
[1] = tested on: barnyardgrass (Echinochloa crus-galli); test: Test A preemergence, barnyardgrass; conditions: Preemergence; for Plant response rating, Barnyardgrass: 31 g ai/ha, visual injury, 0 to 100 scale (0 no effect, 100 complete control), approx. 10 days; for Barnyardgrass plant response rating: 125 g ai/ha, visual injury on 0 to 100 scale (0 no effect, 100 complete control), approximately 10 days
Summary of the method: (§1)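 After sowing into a sand-amended loam, pots for the preemergence test were treated by spraying directly onto soil. In parallel, seedlings at the one- to two-leaf stage and 2 to 10 cm tall were treated postemergence with the identical surfactant-containing formulation.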

kochia (Bassia scoparia) [2] = test: Test A preemergence, kochia; conditions: Preemergence; for Plant response rating, Kochia: 31 g ai/ha, visual injury, 0 to 100 scale (0 no effect, 100 complete control), approx. 10 days; for Kochia plant response rating: 125 g ai/ha, visual injury on 0 to 100 scale (0 no effect, 100 complete control), approximately 10 days
Summary of the method: as §1

[3] = tested on: ragweed (common ragweed, Ambrosia artemisiifolia); test: Test A preemergence, ragweed; conditions: Preemergence; for Plant response rating, Ragweed: 31 g ai/ha, visual injury, 0 to 100 scale (0 no effect, 100 complete control), approx. 10 days; for Ragweed plant response rating: 125 g ai/ha, visual injury on 0 to 100 scale (0 no effect, 100 complete control), approximately 10 days
Summary of the method: as §1

[4] = tested on: Ryegrass, Italian (Italian ryegrass, Lolium multiflorum); test: Test A preemergence, Ryegrass, Italian; conditions: Preemergence; for Plant response rating, Ryegrass, Italian: 31 g ai/ha, visual injury, 0 to 100 scale (0 no effect, 100 complete control), approx. 10 days; for Ryegrass, Italian plant response rating: 125 g ai/ha, visual injury on 0 to 100 scale (0 no effect, 100 complete control), approximately 10 days
Summary of the method: as §1

[5] = tested on: Foxtail, Giant (giant foxtail, Setaria faberi); test: Test A preemergence, Foxtail, Giant; conditions: Preemergence; for Plant response rating, Foxtail, Giant: 31 g ai/ha, visual injury, 0 to 100 scale (0 no effect, 100 complete control), approx. 10 days; for Foxtail, Giant plant response rating: 125 g ai/ha, visual injury on 0 to 100 scale (0 no effect, 100 complete control), approximately 10 days
Summary of the method: as §1

[6] = tested on: pigweed (Amaranthus retroflexus); test: Test A preemergence, pigweed; conditions: for Plant response rating, Pigweed: 31 g ai/ha, visual injury, 0 to 100 scale (0 no effect, 100 complete control), approx. 10 days; for Pigweed plant response rating: 125 g ai/ha, visual injury on 0 to 100 scale (0 no effect, 100 complete control), approximately 10 days
Summary of the method: as §1

[7] = tested on: barnyardgrass (Echinochloa crus-galli); test: Test A postemergence, barnyardgrass; conditions: Postemergence
Summary of the method: as §1

kochia (Bassia scoparia) [8] = test: Test A postemergence, kochia; conditions: Postemergence
Summary of the method: as §1

[9] = tested on: ragweed (common ragweed, Ambrosia artemisiifolia); test: Test A postemergence, ragweed; conditions: Postemergence
Summary of the method: as §1

[10] = tested on: Ryegrass, Italian (Italian ryegrass, Lolium multiflorum); test: Test A postemergence, Ryegrass, Italian; conditions: Postemergence
Summary of the method: as §1

[11] = tested on: Foxtail, Giant (giant foxtail, Setaria faberi); test: Test A postemergence, Foxtail, Giant; conditions: Postemergence
Summary of the method: as §1

[12] = tested on: pigweed (Amaranthus retroflexus); test: Test A postemergence, pigweed; conditions: Postemergence
Summary of the method: as §1

[13] = tested on: wheat (Triticum aestivum); test: Test A postemergence, wheat; conditions: Postemergence
Summary of the method: as §1

corn (Zea mays) = test: Test A postemergence, corn; conditions: Postemergence
Summary of the method: as §1

[14] = tested on: blackgrass (Alopecurus myosuroides); test: Test A postemergence, blackgrass; conditions: Postemergence
Summary of the method: as §1

[15] = tested on: galium (catchweed bedstraw, Galium aparine); test: Test A postemergence, galium; conditions: Postemergence
Summary of the method: as §1

[16] = 31 g ai/ha, visual injury on 0 to 100 scale (0 no effect, 100 complete control), approx. 10 days
[17] = 125 g ai/ha, 0 to 100 scale (0 no effect, 100 complete control)
[18] = 31 g ai/ha, 0 to 100 scale (0 no effect, 100 complete control)
[19] = 125 g ai/ha, visual injury approx. 10 days, 0 to 100 scale (0 no effect, 100 complete control)

SMILES | Plant response rating, Barnyardgrass [1] | Barnyardgrass plant response rating [1] | Plant response rating, Kochia (kochia (Bassia scoparia) [2]) | Kochia plant response rating (kochia (Bassia scoparia) [2]) | Plant response rating, Ragweed [3] | Ragweed plant response rating [3] | Plant response rating, Ryegrass, Italian [4] | Ryegrass, Italian plant response rating [4] | Plant response rating, Foxtail, Giant [5] | Foxtail, Giant plant response rating [5] | Plant response rating, Pigweed [6] | Pigweed plant response rating [6] | Plant response rating, Barnyardgrass [7, 18] | Plant response rating, Barnyardgrass [7, 19] | Plant response rating, Kochia (kochia (Bassia scoparia) [8]; [18]) | Plant response rating, Kochia (kochia (Bassia scoparia) [8]; [19]) | Plant response rating, Ragweed [9, 18] | Plant response rating, Ragweed [9, 19] | Plant response rating, Ryegrass, Italian [10, 18] | Plant response rating, Ryegrass, Italian [10, 19] | other results
Cc1cc(C)c(C2=NOC3(C2)CC(C)CC(C)C3)cc1NS(=O)(=O)C(F)(F)F (single isomer, unassigned) [Compound 168] | 0 | 60 | 0 | 20 | 0 | 0 | 0 | 40 | 0 | 0 | 0 | 10 | – | – | – | – | – | – | – | – | Plant response rating, Barnyardgrass [7, 16]: 30; Plant response rating, Barnyardgrass [7, 17]: 70; Plant response rating, Kochia (kochia (Bassia scoparia) [8]; [16]): 0; Plant response rating, Kochia (kochia (Bassia scoparia) [8]; [17]): 10; Plant response rating, Ragweed [9, 16]: 0; Plant response rating, Ragweed [9, 17]: 60; Plant response rating, Ryegrass, Italian [10, 16]: 0; Plant response rating, Ryegrass, Italian [10, 17]: 30; Plant response rating, Foxtail, Giant [11, 16]: 0; Plant response rating, Foxtail, Giant [11, 17]: 10; Plant response rating, Pigweed [12, 16]: 60; Plant response rating, Pigweed [12, 17]: 80; Plant response rating, Wheat [13, 16]: 0; Plant response rating, Wheat [13, 17]: 0; Plant response rating, Corn (corn (Zea mays); [16]): 0; Plant response rating, Corn (corn (Zea mays); [17]): 0; Plant response rating, Blackgrass [14, 16]: 0; Plant response rating, Blackgrass [14, 17]: 10; Plant response rating, Galium [15, 16]: 70; Plant response rating, Galium [15, 17]: 90
Cc1cc(Cl)c(NS(=O)(=O)C(F)(F)F)cc1C(=O)N1CCOC(C)C1 (centres unmarked) [Compound 1] | 0 | 80 | 40 | 70 | 30 | 50 | 40 | 90 | 20 | 90 | 70 | 100 | 70 | 90 | 20 | 60 | 80 | 90 | 0 | 40 | Plant response rating, Foxtail, Giant [11, 18]: 20; Plant response rating, Foxtail, Giant [11, 19]: 70; Plant response rating, Pigweed [12, 18]: 50; Plant response rating, Pigweed [12, 19]: 80; Plant response rating, Wheat [13, 18]: 30; Plant response rating, Wheat [13, 19]: 50; Plant response rating, Corn (corn (Zea mays); [18]): 20; Plant response rating, Corn (corn (Zea mays); [19]): 30; Plant response rating, Blackgrass [14, 18]: 0; Plant response rating, Blackgrass [14, 19]: 50; Plant response rating, Galium [15, 18]: 90; Plant response rating, Galium [15, 19]: 100
Cc1cc(C(=O)N2CCOC(C)(C)C2)cc(NS(=O)(=O)C(F)(F)F)c1Cl [Compound 2] | 0 | 60 | 20 | 50 | 30 | 90 | 30 | 50 | 80 | 80 | 100 | 100 | 30 | 80 | 10 | 20 | 30 | 80 | 0 | 40 | Plant response rating, Foxtail, Giant [11, 18]: 20; Plant response rating, Foxtail, Giant [11, 19]: 50; Plant response rating, Pigweed [12, 18]: 60; Plant response rating, Pigweed [12, 19]: 70; Plant response rating, Wheat [13, 18]: 40; Plant response rating, Wheat [13, 19]: 60; Plant response rating, Corn (corn (Zea mays); [18]): 20; Plant response rating, Corn (corn (Zea mays); [19]): 30; Plant response rating, Blackgrass [14, 18]: 0; Plant response rating, Blackgrass [14, 19]: 0; Plant response rating, Galium [15, 18]: 90; Plant response rating, Galium [15, 19]: 90
CSC1CCCN(C(=O)c2cc(NS(=O)(=O)C(F)(F)F)c(C)cc2C)C1 (centres unmarked) [Compound 3] | 0 | 50 | 30 | 80 | 0 | 70 | 20 | 70 | 20 | 50 | 90 | 100 | 0 | 30 | 10 | 40 | 40 | 80 | 0 | 0 | Plant response rating, Foxtail, Giant [11, 18]: 0; Plant response rating, Foxtail, Giant [11, 19]: 0; Plant response rating, Pigweed [12, 18]: 70; Plant response rating, Pigweed [12, 19]: 90; Plant response rating, Wheat [13, 18]: 30; Plant response rating, Wheat [13, 19]: 50; Plant response rating, Corn (corn (Zea mays); [18]): 20; Plant response rating, Corn (corn (Zea mays); [19]): 30; Plant response rating, Blackgrass [14, 18]: 0; Plant response rating, Blackgrass [14, 19]: 0; Plant response rating, Galium [15, 18]: 90; Plant response rating, Galium [15, 19]: 90
